Assay results from ChEMBL document CHEMBL1201862, “PubChem BioAssay data set” (2004).
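Exposure lasted 48 hours, with cells grown in 96-well plates and compounds tested at five concentrations. The concentration for 50% growth inhibition is given as GI50.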 Active and inactive are the calls of the source. Rule as the data show it: active = GI50 up to about 1.1 µM and inactive = higher.

Assays:
Experiment in all cases: NCI-60 cell line screen, 48 h
SNB-75 = tested on: SNB-75
IGROV-1 = tested on: IGROV-1
SK-OV-3 = tested on: SK-OV-3
M14 = tested on: M14
RXF 393 = tested on: RXF 393
A549 = tested on: A549
SR = tested on: SR
RPMI-8226 = tested on: RPMI-8226
NCI-H226 = tested on: NCI-H226
SF-295 = tested on: SF-295
Hs-578T = tested on: Hs-578T
HL-60 = tested on: HL-60
HCT-15 = tested on: HCT-15
NCI/ADR-RES = tested on: NCI/ADR-RES
UACC-257 = tested on: UACC-257
NCI-H23 = tested on: NCI-H23
SK-MEL-28 = tested on: SK-MEL-28
MDA-MB-231 = tested on: MDA-MB-231
SW-620 = tested on: SW-620
SK-MEL-2 = tested on: SK-MEL-2
COLO 205 = tested on: COLO 205
T47D = tested on: T47D
MCF7 = tested on: MCF7
HT-29 = tested on: HT-29
OVCAR-3 = tested on: OVCAR-3
786-0 = tested on: 786-0
HCT-116 = tested on: HCT-116
SK-MEL-5 = tested on: SK-MEL-5
MOLT-4 = tested on: MOLT-4
HOP-62 = tested on: HOP-62
K562 = tested on: K562
OVCAR-5 = tested on: OVCAR-5
SNB-19 = tested on: SNB-19
HCC 2998 = tested on: HCC 2998
EKVX = tested on: EKVX
CCRF-CEM = tested on: CCRF-CEM
KM12 = tested on: KM12
SN12C = tested on: SN12C
MDA-MB-435 = tested on: MDA-MB-435
MDA-N = tested on: MDA-N
Malme-3M = tested on: Malme-3M
OVCAR-4 = tested on: OVCAR-4
BT-549 = tested on: BT-549
LOX IMVI = tested on: LOX IMVI
UACC-62 = tested on: UACC-62
TK-10 = tested on: TK-10
PC-3 = tested on: PC-3
UO-31 = tested on: UO-31
ACHN = tested on: ACHN
SF-268 = tested on: SF-268
DU-145 = tested on: DU-145
SF-539 = tested on: SF-539
NCI-H460 = tested on: NCI-H460
HOP-92 = tested on: HOP-92
OVCAR-8 = tested on: OVCAR-8
U-251 = tested on: U-251
A498 = tested on: A498
NCI-H522 = tested on: NCI-H522
CAKI-1 = tested on: CAKI-1

## CCCCC(=O)N/S(=N/C(=O)c1ccccc1)C(Cl)(Cl)Cl (centres undefined)
SNB-75
  GI50: > 100 µM (inactive)
IGROV-1
  GI50: > 100 µM (inactive)
SK-OV-3
  GI50: > 100 µM (inactive)
M14
  GI50: > 100 µM (inactive)
RXF 393
  GI50: > 100 µM (inactive)
A549
  GI50: > 100 µM (inactive)
SR
  GI50: > 100 µM (inactive)
RPMI-8226
  GI50: > 100 µM (inactive)
NCI-H226
  GI50: > 100 µM (inactive)
SF-295
  GI50: > 100 µM (inactive)
Hs-578T
  GI50: > 100 µM (inactive)
HL-60
  GI50: 79.1 µM (inactive)
HCT-15
  GI50: > 100 µM
NCI/ADR-RES
  GI50: > 100 µM (inactive)
UACC-257
  GI50: > 100 µM (inactive)
NCI-H23
  GI50: > 100 µM (inactive)
SK-MEL-28
  GI50: > 100 µM (inactive)
MDA-MB-231
  GI50: > 100 µM (inactive)
SW-620
  GI50: > 100 µM (inactive)
SK-MEL-2
  GI50: > 100 µM (inactive)
COLO 205
  GI50: > 100 µM (inactive)
T47D
  GI50: > 100 µM (inactive)
MCF7
  GI50: > 100 µM (inactive)
HT-29
  GI50: > 100 µM (inactive)
OVCAR-3
  GI50: > 100 µM (inactive)
786-0
  GI50: > 100 µM (inactive)
HCT-116
  GI50: > 100 µM (inactive)
SK-MEL-5
  GI50: > 100 µM (inactive)
MOLT-4
  GI50: > 100 µM (inactive)
HOP-62
  GI50: > 100 µM (inactive)
K562
  GI50: > 100 µM (inactive)
OVCAR-5
  GI50: > 100 µM (inactive)
SNB-19
  GI50: > 100 µM (inactive)
HCC 2998
  GI50: > 100 µM (inactive)
EKVX
  GI50: > 100 µM (inactive)
CCRF-CEM
  GI50: > 100 µM (inactive)
KM12
  GI50: > 100 µM (inactive)
SN12C
  GI50: > 100 µM (inactive)
MDA-MB-435
  GI50: > 100 µM (inactive)
MDA-N
  GI50: > 100 µM (inactive)
Malme-3M
  GI50: > 100 µM (inactive)
OVCAR-4
  GI50: > 100 µM (inactive)
BT-549
  GI50: > 100 µM (inactive)
LOX IMVI
  GI50: > 100 µM (inactive)
UACC-62
  GI50: > 100 µM (inactive)
TK-10
  GI50: > 100 µM (inactive)
PC-3
  GI50: > 100 µM (inactive)
UO-31
  GI50: > 100 µM (inactive)
ACHN
  GI50: > 100 µM (inactive)
SF-268
  GI50: > 100 µM (inactive)
DU-145
  GI50: > 100 µM (inactive)
SF-539
  GI50: > 100 µM (inactive)
NCI-H460
  GI50: > 100 µM (inactive)
HOP-92
  GI50: > 100 µM (inactive)
OVCAR-8
  GI50: > 100 µM (inactive)
U-251
  GI50: > 100 µM (inactive)

## O=c1[nH][nH]c(=S)c(=O)[nH]1
SNB-75
  GI50: > 100 µM (inactive)
IGROV-1
  GI50: > 100 µM (inactive)
SK-OV-3
  GI50: > 100 µM (inactive)
M14
  GI50: > 100 µM (inactive)
RXF 393
  GI50: > 100 µM (inactive)
A549
  GI50: > 100 µM (inactive)
SR
  GI50: > 100 µM (inactive)
RPMI-8226
  GI50: > 100 µM (inactive)
NCI-H226
  GI50: > 100 µM (inactive)
SF-295
  GI50: > 100 µM (inactive)
Hs-578T
  GI50: > 100 µM (inactive)
HL-60
  GI50: > 100 µM (inactive)
HCT-15
  GI50: > 100 µM
NCI/ADR-RES
  GI50: > 100 µM (inactive)
UACC-257
  GI50: > 100 µM (inactive)
NCI-H23
  GI50: > 100 µM (inactive)
A498
  GI50: > 100 µM (inactive)
SK-MEL-28
  GI50: > 100 µM (inactive)
MDA-MB-231
  GI50: > 100 µM (inactive)
SW-620
  GI50: > 100 µM (inactive)
SK-MEL-2
  GI50: > 100 µM (inactive)
COLO 205
  GI50: > 100 µM (inactive)
T47D
  GI50: > 100 µM (inactive)
MCF7
  GI50: > 100 µM (inactive)
HT-29
  GI50: > 100 µM (inactive)
OVCAR-3
  GI50: > 100 µM (inactive)
786-0
  GI50: > 100 µM (inactive)
HCT-116
  GI50: > 100 µM (inactive)
SK-MEL-5
  GI50: > 100 µM (inactive)
MOLT-4
  GI50: > 100 µM (inactive)
HOP-62
  GI50: > 100 µM (inactive)
K562
  GI50: > 100 µM (inactive)
OVCAR-5
  GI50: > 100 µM (inactive)
SNB-19
  GI50: > 100 µM (inactive)
EKVX
  GI50: > 100 µM (inactive)
CCRF-CEM
  GI50: > 100 µM (inactive)
NCI-H522
  GI50: > 100 µM (inactive)
KM12
  GI50: > 100 µM (inactive)
SN12C
  GI50: > 100 µM (inactive)
MDA-MB-435
  GI50: > 100 µM (inactive)
MDA-N
  GI50: > 100 µM (inactive)
Malme-3M
  GI50: > 100 µM (inactive)
CAKI-1
  GI50: > 100 µM (inactive)
OVCAR-4
  GI50: > 100 µM (inactive)
BT-549
  GI50: > 100 µM (inactive)
LOX IMVI
  GI50: > 100 µM (inactive)
UACC-62
  GI50: > 100 µM (inactive)
TK-10
  GI50: > 100 µM (inactive)
PC-3
  GI50: > 100 µM (inactive)
UO-31
  GI50: > 100 µM (inactive)
ACHN
  GI50: > 100 µM (inactive)
SF-268
  GI50: > 100 µM (inactive)
DU-145
  GI50: > 100 µM (inactive)
SF-539
  GI50: > 100 µM (inactive)
NCI-H460
  GI50: > 100 µM (inactive)
HOP-92
  GI50: > 100 µM (inactive)
OVCAR-8
  GI50: > 100 µM (inactive)
U-251
  GI50: > 100 µM (inactive)
